Test results from patent publication US20250197387A1, “BCL-XL DEGRADERS AND USES THEREOF” (Kymera Therapeutics, Inc., priority 2021, published 2025).

Biological target: T1, BCL-XL (Homo sapiens, UniProt Q07817)
T1 construct: endogenous in cells; host or cells: MOLT-4
Assay: BCL-XL degradation assay, western blot in MOLT-4 cells, 16 h
Assay type: cell-based
Conditions: western blot, MOLT-4 cells, 16 h; for Dmax: read-out: Bcl-xL WB in MOLT-4 degradation 16 h: Average Dmax %; for DC50: read-out: Bcl-xL WB in MOLT-4 degradation 16 h: Mean external-Abs DC50
Experimental: Compounds treatment: compounds were reconstituted in DMSO to make a stock concentration of 10 mM. MOLT-4 cells were maintained in RPMI-1640+10% FBS+1% Penicillin-Streptomycin. Cells were seeded into 6-well plates in 2 mL at the seeding density of 2e6 cells/mL. Compounds were added to the cells to a final concentration ranging 0.02-10 μM. After 16 hr incubation at 37° C., in a CO2 incubator, cells were collected in an Eppendorf tube and centrifuged at 200×g for 5 minutes, the supernatant removed and pellets washed with ice-cold PBS, centrifuged and supernatant removed again. Then. 50 μl of pre-chilled RIPA lysis buffer (Boston BioProducts. BP-115D) with protease and phosphatase inhibitors (Roche Applied Science. #04906837001 and #04693116001) was added into cell pellet to lyze the cells for 20 minutes under 4° C. Cell lysates were spin at 13000 rpm for 10 minutes. Supernatants were collected and protein concentration was measured by BCA assay kit (Solarbio. PC0020-500) following the manufacturer's protocol. Samples' final protein concentration was adjusted to 3.75 μg/uL with the RIPA lysis buffer based on BCA assay results and 4× loading buffer (Invitrogen. NP0007) was added into the samples and samples were heated to 85° C., for 10 min and then let cool at RT. Samples were centrifuged at 13000 rpm for 10 min and then loaded into a 26-well NuPAGER. Novex 4-12% Bis-Tris Midi Gel (Invitrogen. WG1403BOX) and run in NuPAGER MOPS SDS Running Buffer (Invitrogen. NP0001) for 180 minutes at 70 V into a XCell4 SureLock™ Midi-Cell Runner (Invitrogen. WR0100). Gel were transferred using the Invitrogen iBlot gel transfer device (Invitrogen. IB21001) and the nitrocellulose transfer stacks (Invitrogen, IB23001) with Program PO for 9 minutes. The membrane was then blocked with 5% bovin serum albumin for 1 hr at RT, then incubated with primary antibodies diluted in blocking buffer (LI-COR. 927-60001) and shake at 4° C., overnight. The primary antibodies were anti-BCL-xL antibody (CST. 2762:1:1000), anti-beta-actin (CST. 3700; 1:5000) and anti-GAPDH (CST. 97166:1:5000). Membranes were then washed three times with PBST for 15 minutes at RT. Secondary antibodies IR-Dye 680 CW Goat anti Mouse IgG (LI-COR. 926-68070) and IR-Dye 800 CW Goat anti Rabbit IgG (LI-COR. 926-32211) were diluted at a ratio of 1:10000 into PBST and membranes incubated for 1 hour at RT. Membranes were then washed three times with PBST for 15 minutes at RT. The western blot images were obtained using Odyssey Imaging System and quantified using Image Studio Lite Ver 5.2 software.
The letter codes for BCL-XL DC50 include: A (<0.01 μM); B (0.01-0.1 μM); C (>[…]); D (>0.5-1.0 μM); and E (>1.0 μM). The letter codes for Dmax % include A (>75%); B (50 to 75%); C (<50%).

T1 sequence (Q07817 whole entry): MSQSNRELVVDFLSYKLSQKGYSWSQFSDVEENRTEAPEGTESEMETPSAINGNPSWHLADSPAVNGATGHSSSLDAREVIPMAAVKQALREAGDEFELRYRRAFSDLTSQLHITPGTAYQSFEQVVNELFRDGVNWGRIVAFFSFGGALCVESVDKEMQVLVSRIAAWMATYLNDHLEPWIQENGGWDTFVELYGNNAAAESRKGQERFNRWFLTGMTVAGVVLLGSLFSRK

Row | Dmax [%] | DC50 [nM] | SMILES
1 | > 75 | 100 to 500 | Cc1ncsc1-c1ccc(CNC(=O)[C@@H]2C[C@@H](O)CN2C(=O)[C@@H](NC(=O)C2(F)CC2)C(C)(C)C)c(OCCCCCC(=O)N(C)CCCc2cccc(F)c2OCCCc2sc(N3CCc4cccc(C(=O)Nc5nc6ccccc6s5)c4C3)nc2C(=O)O)c1 [I-13]
2 | > 75 | 100 to 500 | Cc1ncsc1-c1ccc(CNC(=O)[C@@H]2C[C@@H](O)CN2C(=O)[C@@H](NC(=O)C2(F)CC2)C(C)(C)C)c(OCCCCCCCC(=O)N(C)CCCc2cccc(F)c2OCCCc2sc(N3CCc4cccc(C(=O)Nc5nc6ccccc6s5)c4C3)nc2C(=O)O)c1 [I-14]
3 | 50 to 75 | > 1000 | Cc1ncsc1-c1ccc(CNC(=O)[C@@H]2C[C@@H](O)CN2C(=O)[C@@H](NC(=O)C2(F)CC2)C(C)(C)C)c(OCCCC(=O)N(C)CC#Cc2cccc(F)c2OCCCc2sc(N3CCc4cccc(C(=O)Nc5nc6ccccc6s5)c4C3)nc2C(=O)O)c1 [I-18]
4 | < 50 | > 1000 | Cc1ncsc1-c1ccc(CNC(=O)[C@@H]2C[C@@H](O)CN2C(=O)[C@@H](NC(=O)C2(F)CC2)C(C)(C)C)c(OCCCCCC(=O)N(C)CC#Cc2cccc(F)c2OCCCc2sc(N3CCc4cccc(C(=O)Nc5nc6ccccc6s5)c4C3)nc2C(=O)O)c1 [I-19]
5 | > 75 | 100 to 500 | Cc1ncsc1-c1ccc(CNC(=O)[C@@H]2C[C@@H](O)CN2C(=O)[C@@H](NC(=O)C2(F)CC2)C(C)(C)C)c(OCCCCCCCC(=O)N(C)CC#Cc2cccc(F)c2OCCCc2sc(N3CCc4cccc(C(=O)Nc5nc6ccccc6s5)c4C3)nc2C(=O)O)c1 [I-20]
6 | > 75 | < 10 | Cc1ncsc1-c1ccc([C@H](C)NC(=O)[C@@H]2C[C@@H](O)CN2C(=O)[C@@H](NC(=O)CCCCCS(=O)(=O)NC(=O)c2nc(N3CCc4cccc(C(=O)Nc5nc6ccccc6s5)c4C3)sc2CCCOc2ccc(C#CCN(C)C)cc2F)C(C)(C)C)cc1 [I-26]
7 | < 50 | > 1000 | Cc1ncsc1-c1ccc([C@H](C)NC(=O)[C@@H]2C[C@@H](O)CN2C(=O)[C@@H](NC(=O)CCc2cccc(F)c2OCCCc2sc(N3CCc4cccc(C(=O)Nc5nc6ccccc6s5)c4C3)nc2C(=O)O)C(C)(C)C)cc1 [I-30]
8 | < 50 | > 1000 | Cc1ncsc1-c1ccc([C@H](C)NC(=O)[C@@H]2C[C@@H](O)CN2C(=O)[C@@H](NC(=O)CCCN(C)C(=O)CCCCCc2ccc(N3CCc4cccc(C(=O)Nc5nc6ccccc6s5)c4C3)nc2C(=O)O)C(C)(C)C)cc1 [I-36, 6-(8-(benzo[d]thiazol-2-ylcarbamoyl)-3,4-dihydroisoquinolin-2 (1H)-yl)-3-(6-((4-(((S)-1-((2S,4R)-4-hydroxy-2-(((S)-1-(4-(4-methylthiazol-5-yl)phenyl)ethyl)carbamoyl)pyrrolidin-1-yl)-3,3-dimethyl-1-oxobutan-2-yl)amino)-4-oxobutyl)(methyl)amino)-6-oxohexyl)picolinic acid]
9 | 50 to 75 | 100 to 500 | Cc1ncsc1-c1ccc(CNC(=O)[C@@H]2C[C@@H](O)CN2C(=O)C(c2cc(OCCCC(=O)N3CCN(CC[C@H](CSc4ccccc4)Nc4ccc(S(=O)(=O)NC(=O)c5ccc(N6CCN(CC7=C(c8ccc(Cl)cc8)CCC(C)(C)C7)CC6)cc5)cc4S(=O)(=O)C(F)(F)F)CC3)no2)C(C)C)cc1 (stereo partly drawn) [I-38]
10 | < 50 | > 1000 | Cc1ncsc1-c1ccc([C@H](C)NC(=O)[C@@H]2C[C@@H](O)CN2C(=O)[C@@H](NC(=O)CCc2ccc(N3CCc4cccc(C(=O)Nc5nc6ccccc6s5)c4C3)nc2C(=O)O)C(C)(C)C)cc1 [I-40]
11 | 50 to 75 | > 1000 | Cc1ncsc1-c1ccc([C@H](C)NC(=O)[C@@H]2C[C@@H](O)CN2C(=O)[C@@H](NC(=O)CCCC(=O)N2CCN(CC[C@H](CSc3ccccc3)Nc3ccc(S(=O)(=O)NC(=O)c4ccc(N5CCN(CC6=C(c7ccc(Cl)cc7)CCC(C)(C)C6)CC5)cc4)cc3S(=O)(=O)C(F)(F)F)CC2)C(C)(C)C)cc1 [I-86]
12 | > 75 | 10 to 100 | Cc1ncsc1-c1ccc(CNC(=O)[C@@H]2C[C@@H](O)CN2C(=O)C(c2cc(OCCCCCC(=O)N(C)CC#Cc3ccc(OCCCc4sc(N5CCc6cccc(C(=O)Nc7nc8ccccc8s7)c6C5)nc4C(=O)O)c(F)c3)no2)C(C)C)cc1 (stereo partly drawn) [I-87]
